Test results taken from patent US6552071B2, “Methods for treating cell death diseases and inflammation” (President and Fellows of Harvard College, priority 1999, dated 2003).
pIC50: −log10 of the molar value.

How the values were obtained:
Assay type in all cases: cell-based
[1] = system: NF-κB; assay: NF-κB-luciferase reporter in LPS-treated BalbC/3T3 cells
Experimental: FIG. 5A is a graph of the effect of the active Eclipta prostrata L. fraction on induction of NF-κB and caspase-11. BalbC/3T3 cells were transfected with an NF-κB luciferase report construct and treated with the ethylacetate fraction of Eclipta prostrata L. ethylacetate extract (EA) or 11,12-dihydroxy coumestan (10 mg/ml) for 1 hour and then treated with 2 μg/ml LPS for 9 hours. Luciferase activity was then determined.
FIG. 28 is a graph of the inhibition of NF-κB activation by synthetic wedelolactone. BalbC/3T3 cells were transfected with NF-κB luciferase construct. Twelve hours later, cells were treated with 0, 20 μM, 40 μM, 60 μM, or 100 μM of wedelolactone for 1 hour and then 2 μg/ml LPS for additional 6 hours. Luciferase activity was then quantified.
Since caspase-11 is induced through the NF-κB pathway, wedelolactone (FIG. 3) may inhibit the activity of NF-κB. To examine this possibility, BalbC/3T3 cells were transfected with an NF-κB-luciferase reporter plasmid (containing an NF-κB response element).
The ability of synthetic wedelolactone to inhibit the activation of NF-κB induced by LPS was also assessed. BalbC/3T3 cells were transfected with a plasmid encoding an NF-κB-luciferase reporter protein in the presence of varying concentrations of wedelolactone. […] These experiments provided the final confirmation that wedelolactone is an inhibitor of NF-κB activation and caspase-11 induction. Thus, wedelolactone can be used to treat cell death diseases and inflammation.

[2] = system: caspase-11; assay: LPS-induced caspase-11 expression in BalbC/3T3 cells, Western blot
Experimental: FIG. 27 is a graph of the inhibition of caspase-11 induction by synthetic wedelolactone. BalbC/3T3 cells were treated with 0, 30 μM, 40 μM, 60μM, 80 μM or 100 μM of wedelolactone for 1 hour and LPS for an additional 6 hours. The induction of caspase-11 was measured by Western blot analysis and quantification.
To identify modulators of caspase-11 expression or activity, a tissue culture model of caspase-11 induction was generated. In this model, BalbC/3T3 cells normally express undetectable levels of caspase-11 biological activity, as measured by Western blot analysis. […] A caspase-11 modulatory compound may be administered to the cells prior to administration of LPS, and then caspase-11 biological activity may be measured at a specific time after addition of LPS to the culture media of the cells. A caspase-11 modulatory compound that suppresses the LPS-induced biological activity of caspase-11 is considered to be a compound that modulates not only caspase-11 expression, but also cell death or inflammation.
BalbC/3T3 cells were next preincubated with an ethanol extract of the plant Eclipta prostrata L. (454 g of Eclipta prostrata L. was extracted into 8 ml of ethanol; 5 μl of extract/ml of tissue culture media was applied to the cell culture) for 6 hours, followed by treatment with LPS for 6 hours, as described above. The level of caspase-11 protein expression was then measured.

[3] = system: STAT1; assay: Atlas DNA array mRNA expression in LPS-treated BalbC/3T3 cells; conditions: 100 μM 1 h, then LPS 6 h
Source text: (§1) One hundred μM wedelolactone reduced the expression of NF-κB p105 mRNA in LPS-treated BalbC/3T3 cells at the ratio of 1 to 8.

[4] = system: STAT3; assay: as above; conditions: 100 μM 1 h, then LPS 6 h
Source text: as §1

[5] = system: NF-κB p105 mRNA; assay: as above; conditions: 100 μM 1 h, then LPS 6 h, versus LPS only
Source text: as §1

| pIC50 ([2]; BALB/c3T3, BalbC/3T3 cells, wedelolactone 1 hour, LPS additional 6 hours, read-out: IC50, inhibition of induction of caspase-11 by LPS) | SMILES | Inhibition of LPS induction of NF-κB luciferase activity (FIG. 5A) ([1]; 1 hour pre-treatment, 2 μg/ml LPS 9 hours, coumestan 10 mg/ml) | Inhibition of caspase-11 expression ([2]; general statement in Example 3) | STAT1 expression level, % of control cells treated with LPS only [3] [%] | STAT3 expression level, % of control cells treated with LPS only [4] [%] | Reduction of NF-κB p105 mRNA expression, ratio [5] | Inhibition of LPS-induced activation of the NF-κB promoter (FIG. 28) ([1]; 0-100 μM 1 hour, 2 μg/ml LPS 6 hours, same concentration range as caspase-11 inhibition) | Inhibition of NF-κB transcriptional activity induced by LPS ([1]; 60 and 100 μM) | Suppression of LPS-induced caspase-11 expression ([2]; 70 μg/ml, 6 hour pre-treatment, then LPS) |
| --- | --- | --- | --- | --- | --- | --- | --- | --- | --- |
| – | O=c1oc2ccccc2c2oc3cc(O)c(O)cc3c12 [11,12-dihydroxy coumestan, reference compound] | did not inhibit NF-κB induction | does not inhibit caspase-11 expression | – | – | – | – | – | – |
| ~4.30 | COc1cc(O)c2c(c1)oc(=O)c1c3cc(O)c(O)cc3oc21 [wedelolactone] | – | – | 4 | 30 | 1 to 8 | inhibited the activation of the NF-κB promoter | inhibited the NF-κB transcriptional activity | suppressed caspase-11 expression |
